Entries after “also recorded” stand apart in the source; their conditions may differ.
biological target: serum butyrylcholinesterase (Mus musculus (Mouse), UniProt Q03311); assay: In vivo serum butyrylcholinesterase activity; parameters: species or system transgenic Alzheimer's mice; conditions: 10 mg and 20 mg doses over 11 months and 13 months; listed as DB2CIPP
Text: (§1) DB2CIPP Testing Results Inhibition of BChE in brain and serum. Di-n-butyl 2 chlorophenyl phosphate (DB2CIPP) inhibits BChE in brain and serum without inhibiting AChE in serum (see FIG. 5, FIG. 7, and FIG. 8).

serum butyrylcholinesterase, sequence (Q03311 30-603 limits assumed): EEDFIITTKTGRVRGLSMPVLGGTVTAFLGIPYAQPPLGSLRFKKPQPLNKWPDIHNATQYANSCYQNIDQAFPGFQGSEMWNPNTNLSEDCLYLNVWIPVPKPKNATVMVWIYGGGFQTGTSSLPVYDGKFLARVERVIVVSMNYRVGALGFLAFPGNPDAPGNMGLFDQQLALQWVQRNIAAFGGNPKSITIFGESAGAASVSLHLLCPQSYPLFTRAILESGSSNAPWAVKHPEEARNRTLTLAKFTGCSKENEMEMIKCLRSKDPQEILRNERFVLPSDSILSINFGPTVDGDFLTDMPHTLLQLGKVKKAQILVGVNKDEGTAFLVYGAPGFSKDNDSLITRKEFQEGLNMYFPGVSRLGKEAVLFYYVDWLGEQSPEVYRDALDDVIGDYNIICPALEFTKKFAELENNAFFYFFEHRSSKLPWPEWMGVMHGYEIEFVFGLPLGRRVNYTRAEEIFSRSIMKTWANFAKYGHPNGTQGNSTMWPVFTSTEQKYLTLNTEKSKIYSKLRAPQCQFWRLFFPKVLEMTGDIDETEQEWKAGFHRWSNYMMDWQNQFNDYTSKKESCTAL

Structure (SMILES) | Inhibition of serum butyrylcholinesterase activity
CCCCOP(=O)(OCCCC)Oc1ccccc1Cl [Compound 9, Di-n-butyl 2-chlorophenyl phosphate] | significant inhibition

biological target: T1, ACHE (Homo sapiens (Human), UniProt P22303); assay: ACHE inhibition, colorimetric with substrate and Ellman's reagent; assay type: biochemical; conditions: not given
T1 sequence (P22303 32-614): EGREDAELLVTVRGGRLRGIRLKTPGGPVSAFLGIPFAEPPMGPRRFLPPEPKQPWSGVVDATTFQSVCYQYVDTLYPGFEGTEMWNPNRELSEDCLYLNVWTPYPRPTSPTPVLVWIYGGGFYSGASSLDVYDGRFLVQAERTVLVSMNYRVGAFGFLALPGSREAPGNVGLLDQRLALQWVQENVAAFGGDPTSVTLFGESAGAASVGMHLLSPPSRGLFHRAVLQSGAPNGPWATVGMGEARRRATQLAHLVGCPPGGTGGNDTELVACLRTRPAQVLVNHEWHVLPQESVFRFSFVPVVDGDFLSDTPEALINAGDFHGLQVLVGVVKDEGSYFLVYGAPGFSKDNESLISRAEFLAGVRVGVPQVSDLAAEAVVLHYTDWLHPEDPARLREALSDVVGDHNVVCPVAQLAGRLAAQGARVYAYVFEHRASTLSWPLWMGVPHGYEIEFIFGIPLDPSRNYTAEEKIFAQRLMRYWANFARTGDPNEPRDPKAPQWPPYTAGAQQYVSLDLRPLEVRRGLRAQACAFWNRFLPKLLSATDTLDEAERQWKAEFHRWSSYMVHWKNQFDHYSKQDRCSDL

Structure (SMILES) | IC50 | Ki
CCCCOP(=O)(OCCCC)Oc1ccccc1Cl [Compound 9, Di-n-butyl 2-chlorophenyl phosphate] | 47 µM | 
CCOP(=O)(OCC)Oc1ccccc1 [Compound 94, Diethyl phenyl phosphate] |  | 3100 µM
COP(=O)(OC)Oc1ccccc1 [Compound 93, Dimethyl phenyl phosphate] |  | 6500 µM

same assay, conditions: enzyme incubated 2 hours with compound

Structure (SMILES) | IC50
CCCCOP(=O)(OCCCC)Oc1ccccc1Cl [Compound 9, Di-n-butyl 2-chlorophenyl phosphate] | 47 µM

same assay, conditions: inhibitor 1 mM, [ATC] = 0.1 mM

Structure (SMILES) | Inhibition of ACHE
CCCCOP(=O)(OCCCC)Oc1ccccc1 [Compound 96, Di-n-butyl phenyl phosphate] | ^cNo inhibition at [1d] = 1 mM and [ATC] = 0.1 mM.

same assay, conditions: inhibitor 3 mM, [ATC] = 0.1 mM

Structure (SMILES) | Inhibition of ACHE
O=P(Oc1ccccc1)(OC1CCCCC1)OC1CCCCC1 [Compound 98, Di-cyclohexyl phenyl phosphate] | ^eNo inhibition at [1f] = 3 mM and [ATC] = 0.1 mM.
CCCCOP(=O)(OCC)Oc1ccccc1 (racemic) [Compound 99, (±)-n-Butyl ethyl phenyl phosphate] | ^f<8% inhibition at [2] = 3 mM and [ATC] = 0.1 mM.
CCCCCOP(=O)(OCCCCC)Oc1ccccc1 [Compound 97, Di-n-pentyl phenyl phosphate] | ^d<8% Inhibition at [le] = 3 mM and [ATC] = 0.1 mM.

same assay, conditions: inhibitor 5 mM, [ATC] = 0.1 mM

Structure (SMILES) | Inhibition of ACHE
CCCOP(=O)(OCCC)Oc1ccccc1 [Compound 95, Di-n-propyl phenyl phosphate] | ^b<20% Inhibition at [lc] = 5 mM and [ATC] = 0.1 mM.

system: β-amyloid plaque; assay: In vivo β-amyloid plaque formation, immunohistochemistry; parameters: species or system transgenic Alzheimer's mice; conditions: 10 mg or 20 mg doses over 13 months, vs untreated mice
Text: Images show immunohistochemistry of 13-month transgenic Alzheimer's disease mice brains at subiculum region of hippocampus, treated with DB2CIPP and DMSO control beginning at 9 months. […] Selective inhibition of butyrylcholinesterase in the brain is widely documented as a potential treatment for Alzheimer's disease and dementia, by improving cognition and modulating neuropathological markers of the disease. As an inhibitor of butyrylcholinesterase, DB2CIPP may also be used to inhibit or slow the progression of the Alzheimer's-like symptoms seen in long COVID.

Structure (SMILES) | Beta amyloid plaques immunopositive staining in the hippocampus
CCCCOP(=O)(OCCCC)Oc1ccccc1Cl [Compound 9, Di-n-butyl 2-chlorophenyl phosphate] | reduced

same assay, conditions: 13-month mice, subiculum region of hippocampus, treated beginning at 9 months, vs DMSO control; listed as DB2CIPP

Structure (SMILES) | Inhibition of β-amyloid plaque formation
CCCCOP(=O)(OCCCC)Oc1ccccc1Cl [Compound 9, Di-n-butyl 2-chlorophenyl phosphate] | significant inhibition

biological target: T2, BCHE (Homo sapiens (Human), UniProt P06276); assay: not given; assay type: biochemical; conditions: 20 μM inhibitor, 2 minutes; Activity of Inhibitor incubated enzyme/Activity of unincubated enzyme
T2 sequence (P06276 29-602, species assumed): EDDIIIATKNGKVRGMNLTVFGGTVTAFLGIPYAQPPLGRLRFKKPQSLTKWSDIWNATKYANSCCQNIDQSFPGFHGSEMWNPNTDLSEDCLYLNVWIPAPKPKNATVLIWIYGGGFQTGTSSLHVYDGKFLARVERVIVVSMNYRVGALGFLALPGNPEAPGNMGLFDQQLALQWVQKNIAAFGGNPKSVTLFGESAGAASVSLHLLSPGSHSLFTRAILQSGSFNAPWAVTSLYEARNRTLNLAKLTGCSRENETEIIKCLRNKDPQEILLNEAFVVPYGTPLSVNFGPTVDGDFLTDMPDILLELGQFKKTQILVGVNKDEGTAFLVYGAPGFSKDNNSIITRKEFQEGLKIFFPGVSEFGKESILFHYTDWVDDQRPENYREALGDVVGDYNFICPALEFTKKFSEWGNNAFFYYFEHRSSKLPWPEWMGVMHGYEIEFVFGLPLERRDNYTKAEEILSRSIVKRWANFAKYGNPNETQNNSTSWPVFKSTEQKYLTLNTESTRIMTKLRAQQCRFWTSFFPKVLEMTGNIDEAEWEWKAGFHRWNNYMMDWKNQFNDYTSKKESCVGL

Structure (SMILES) | Relative Activity of BCHE
CCCCOP(=O)(Cc1ccc2ccccc2c1)OCCCC [Compound 90, Di-n-butyl 2-naphthylmethylphosphonate] | 0.45
CCCCOP(=O)(OCCCC)Oc1ccc2ccccc2c1 [Compound 35, Di-n-butyl 2-napthyl phosphate] | 0.10
CCCCOP(=O)(Cc1cc(C)cc(C)c1)OCCCC [Compound 92, Di-n-butyl 3,5-dimethylbenzylphosphonate] | 0.64
CCCCOP(=O)(Cc1cccc2ccccc12)OCCCC [Compound 89, Di-n-butyl 1-naphthylmethylphosphonate] | 0.47
CCCCOP(=O)(OCCCC)Oc1cc(C)cc(C)c1 [Compound 27, Di-n-butyl 3,5-dimethylphenyl phosphate] | 0.45

system: not listed separately; assay: In vivo blood brain barrier crossing; conditions: other in vivo tests

Structure (SMILES) | Ability to cross the blood brain barrier (BBB)
CCCCOP(=O)(OCCCC)Oc1ccccc1Cl [Compound 9, Di-n-butyl 2-chlorophenyl phosphate] | cross the blood brain barrier

biological target: T2, BCHE; assay: biochemical; assay type: biochemical; conditions: not given
Experimental: The compounds referred to herein have BCHE inhibitory activity. To determine the inhibitory values, enzymes were incubated for 2 hours in the presence of varying concentrations of compound prior to activity measurements. Activity is then measured colorimetrically upon addition of substrate and Ellman's reagent.

Structure (SMILES) | Ki | IC50
O=P(Oc1ccccc1)(OC1CCCCC1)OC1CCCCC1 [Compound 98, Di-cyclohexyl phenyl phosphate] | 7 µM | 
CCCCOP(=O)(OCCCC)Oc1ccccc1Cl [Compound 9, Di-n-butyl 2-chlorophenyl phosphate] |  | 0.00069 µM
CCOP(=O)(OCC)Oc1ccccc1 [Compound 94, Diethyl phenyl phosphate] | 55 µM | 
CCCCOP(=O)(OCCCC)Oc1ccc2ccccc2c1 [Compound 35, Di-n-butyl 2-napthyl phosphate] | 1.9 µM | 
COP(=O)(OC)Oc1ccccc1 [Compound 93, Dimethyl phenyl phosphate] | 1700 µM | 
CCCCOP(=O)(OCCCC)Oc1cc(C)cc(C)c1 [Compound 27, Di-n-butyl 3,5-dimethylphenyl phosphate] | 1 µM | 
CCCCCOP(=O)(OCCCCC)Oc1ccccc1 [Compound 97, Di-n-pentyl phenyl phosphate] | 6 µM | 

same assay, conditions: ACHE IC50 vs BCHE IC50

Structure (SMILES) | Selectivity toward BCHE over ACHE
CCCCOP(=O)(OCCCC)Oc1ccccc1Cl [Compound 9, Di-n-butyl 2-chlorophenyl phosphate] | approximately 68,000 fold

same assay, conditions: Irreversible = enzyme covalently modified

Structure (SMILES) | Mode of Inhibition
O=P(Oc1ccccc1)(OC1CCCCC1)OC1CCCCC1 [Compound 98, Di-cyclohexyl phenyl phosphate] | ^aPartial competitive.
O=P(OCCCCCCOP(=O)(Oc1ccccc1)Oc1ccccc1)(Oc1ccccc1)Oc1ccccc1 [Compound 67, Tetraphenyl hexane-1,6-diyl bisphosphate] | Reversible
CCOP(=O)(OCC)OCCCCCCOP(=O)(OCC)OCC [Compound 56, Tetraethyl hexane-1,6-diyl bisphosphate] | Reversible
CCCCOP(=O)(Cc1ccc2ccccc2c1)OCCCC [Compound 90, Di-n-butyl 2-naphthylmethylphosphonate] | Irreversible^g
CCCCOP(=O)(OCCCC)Oc1ccccc1Cl [Compound 9, Di-n-butyl 2-chlorophenyl phosphate] | Irreversible^g
CCCCOP(=O)(OCCCC)Oc1ccc2ccccc2c1 [Compound 35, Di-n-butyl 2-napthyl phosphate] | Reversible
CCCCOP(=O)(Cc1cc(C)cc(C)c1)OCCCC [Compound 92, Di-n-butyl 3,5-dimethylbenzylphosphonate] | Irreversible^g
CCCCOP(=O)(OCCCC)OCCCCCCOP(=O)(OCCCC)OCCCC [Compound 62, Tetrabutyl hexane-1,6-diyl bisphosphate] | Reversible
CCCCOP(=O)(Cc1cccc2ccccc12)OCCCC [Compound 89, Di-n-butyl 1-naphthylmethylphosphonate] | Irreversible^g
CCCCOP(=O)(OCCCC)Oc1cc(C)cc(C)c1 [Compound 27, Di-n-butyl 3,5-dimethylphenyl phosphate] | Reversible
CCCCCOP(=O)(OCCCCC)Oc1ccccc1 [Compound 97, Di-n-pentyl phenyl phosphate] | ^aPartial competitive.

same assay, conditions: enzyme incubated 2 hours with compound

Structure (SMILES) | IC50
CCOP(=O)(OCC)OCCCCCOP(=O)(OCC)OCC [Compound 55, Tetraethyl pentane-1,5-diyl bisphosphate] | 35.4 µM
CCOP(=O)(OCC)OCCCCCCCOP(=O)(OCC)OCC [Compound 57, Tetraethyl heptane-1,7-diyl bisphosphate] | 40.1 µM
CCOP(=O)(OCC)OCCCOP(=O)(OCC)OCC [Compound 53, Tetraethyl propane-1,3-diyl bisphosphate] | 8.26 µM
CCOP(=O)(OCC)OCCOCCOP(=O)(OCC)OCC [Compound 58, Tetraethyl 3-oxapentane-1,5-diyl bisphosphate] | 11.1 µM
CCCCOP(=O)(OCCCC)Oc1ccccc1Cl [Compound 9, Di-n-butyl 2-chlorophenyl phosphate] | 0.00069 µM
CCCCOP(=O)(OCCCC)OCCCCOP(=O)(OCCCC)OCCCC [Compound 60, Tetrabutyl butane-1,4-diyl bisphosphate] | 88.1 µM
CCCCOP(=O)(OCCCC)OCCCOP(=O)(OCCCC)OCCCC [Compound 59, Tetrabutyl propane-1,3-diyl bisphosphate] | 0.79 µM
CCCCOP(=O)(OCCCC)OCCCCCCCOP(=O)(OCCCC)OCCCC [Compound 63, Tetrabutyl heptane-1,7-diyl bisphosphate] | 3.95 µM
CCOP(=O)(OCC)OCCCCOP(=O)(OCC)OCC [Compound 54, Tetraethyl butane-1,4-diyl bisphosphate] | 8.2 µM
CCCCOP(=O)(OCCCC)OCCCCCCCCOP(=O)(OCCCC)OCCCC [Compound 64, Tetrabutyl octane-1,8-diyl bisphosphate] | 2.39 µM
CCCCOP(=O)(OCCCC)OCCCCCOP(=O)(OCCCC)OCCCC [Compound 61, Tetrabutyl pentane-1,5-diyl bisphosphate] | 2.72 µM
CCCCOP(=O)(OCCCC)OCCOCCOP(=O)(OCCCC)OCCCC [Compound 65, Tetrabutyl 3-oxapentane-1,5-diyl bisphosphate] | 31.2 µM
CCCCOP(=O)(OCCC=CCCOP(=O)(OCCCC)OCCCC)OCCCC [Compound 66, Tetrabutyl 3-hexene-1,6-diyl bisphosphate] | 1.2 µM

same assay, conditions: enzyme incubated 2 hours with compound; read-out: BCHE Ki ± SEM

Structure (SMILES) | Ki
CCOP(=O)(OCC)OCCCCCCOP(=O)(OCC)OCC [Compound 56, Tetraethyl hexane-1,6-diyl bisphosphate] | 228 µM
CCCCOP(=O)(OCCCC)OCCCCCCOP(=O)(OCCCC)OCCCC [Compound 62, Tetrabutyl hexane-1,6-diyl bisphosphate] | 4 µM

biological target: hippocampal butyrylcholinesterase (Mus musculus (Mouse), UniProt Q03311); assay: In vivo hippocampal butyrylcholinesterase activity; parameters: species or system transgenic Alzheimer's mice; conditions: 10 mg and 20 mg doses over 11 months; listed as DB2CIPP
Sequence (Q03311 30-603 limits assumed): as the sequence (Q03311 30-603 limits assumed) above
Text: as §1

Structure (SMILES) | Inhibition of hippocampal butyrylcholinesterase activity
CCCCOP(=O)(OCCCC)Oc1ccccc1Cl [Compound 9, Di-n-butyl 2-chlorophenyl phosphate] | significant inhibition

biological target: Aβ (1-40) peptide (Homo sapiens, UniProt P05067); assay: Thioflavin T fluorescence assay of β-amyloid peptide aggregation; assay type: biochemical; conditions: 30 μM peptide, 25° C., 2 hours, ThT fluorescence
Experimental: Neurotoxic plaques, i.e., aggregates of β-amyloid peptide, bind thioflavin T (ThT) and show significant fluorescence.
Aβ (1-40) peptide was solubilized in hexafluoroisopropanol (HFIP). A solution of 25 μM ThT was prepared in 0.025 M phosphate buffer, pH 6.0. Peptide was dissolved in 0.01 M PBS; 0.1M NaCl, pH7.4 to a final concentration of 30 μM. Inhibitors were prepared in methanol. The final concentration of HFIP and methanol were 2% and 10% (v/v) respectively. The control sample consisted peptide incubated in PBS/2% HFI/10% methanol without inhibitor. All samples were mixed and incubated at 25° C. for 2 hours. Fluorescence was measured by mixing 470 μL of ThT solution with 30 μL of the protein solution. Excitation and emission wavelengths were 440 nm with 5 nm slit width and 485 nm with 10 nm slit width, respectively. Biological activity was calculated as percent of inhibitory activity of inhibitor at varying concentration was calculated using the following equation: Vi=100−[(Fi−Fb)/F0]×100. The higher the Vi, the less aggregation of amyloid peptide.

Structure (SMILES) | Inhibition of aggregation of β-amyloid peptides
O=P(OCCCCCCOP(=O)(Oc1ccccc1)Oc1ccccc1)(Oc1ccccc1)Oc1ccccc1 [Compound 67, Tetraphenyl hexane-1,6-diyl bisphosphate] | significantly inhibited
CCOP(=O)(OCC)OCCCCCCOP(=O)(OCC)OCC [Compound 56, Tetraethyl hexane-1,6-diyl bisphosphate] | significantly inhibited
CCCCOP(=O)(OCCCC)Oc1ccccc1Cl [Compound 9, Di-n-butyl 2-chlorophenyl phosphate] | did not inhibit
CCCCOP(=O)(OCCCC)OCCCCCCOP(=O)(OCCCC)OCCCC [Compound 62, Tetrabutyl hexane-1,6-diyl bisphosphate] | significantly inhibited

biological target: serum acetylcholinesterase (Mus musculus (Mouse), UniProt P21836); assay: In vivo serum acetylcholinesterase activity; parameters: species or system transgenic Alzheimer's mice; conditions: 10 mg and 20 mg doses over 11 months and 13 months; listed as DB2CIPP
Sequence (P21836 32-614 limits assumed): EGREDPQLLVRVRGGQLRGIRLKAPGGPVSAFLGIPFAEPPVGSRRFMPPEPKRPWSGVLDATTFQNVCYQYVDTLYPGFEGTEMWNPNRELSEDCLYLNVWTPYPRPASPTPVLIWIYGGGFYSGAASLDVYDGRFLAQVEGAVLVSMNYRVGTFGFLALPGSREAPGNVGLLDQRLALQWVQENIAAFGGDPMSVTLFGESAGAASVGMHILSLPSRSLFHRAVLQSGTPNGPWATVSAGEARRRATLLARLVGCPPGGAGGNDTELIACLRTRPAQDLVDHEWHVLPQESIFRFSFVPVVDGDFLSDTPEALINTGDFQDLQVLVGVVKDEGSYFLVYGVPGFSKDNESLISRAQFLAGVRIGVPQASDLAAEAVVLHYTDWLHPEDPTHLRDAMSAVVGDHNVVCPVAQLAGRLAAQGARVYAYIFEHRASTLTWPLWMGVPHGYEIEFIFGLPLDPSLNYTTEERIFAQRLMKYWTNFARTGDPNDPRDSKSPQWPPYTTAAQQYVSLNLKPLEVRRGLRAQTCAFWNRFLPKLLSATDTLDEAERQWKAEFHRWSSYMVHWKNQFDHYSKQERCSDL
Text: as §1

Structure (SMILES) | Serum acetylcholinesterase activity
CCCCOP(=O)(OCCCC)Oc1ccccc1Cl [Compound 9, Di-n-butyl 2-chlorophenyl phosphate] | substantially not altered; also recorded: not significantly altered

biological target: T1, ACHE; assay: Relative Activity of ACHE, 20 μM inhibitor for 2 minutes; assay type: biochemical; conditions: Activity of Inhibitor incubated enzyme/Activity of unincubated enzyme
Experimental: In order to compare the relative inhibitory activity of the five compounds 27, 35, 89, 90 and 92 against BCHE and ACHE, a solution of each enzyme was incubated with 20 μM of the inhibitor for 2 minutes, and the enzyme activity determined. Table 5 lists the Relative Activity (=Activity of Inhibitor incubated enzyme/Activity of unincubated enzyme).

Structure (SMILES) | Relative Activity of ACHE
CCCCOP(=O)(Cc1ccc2ccccc2c1)OCCCC [Compound 90, Di-n-butyl 2-naphthylmethylphosphonate] | 0.95
CCCCOP(=O)(OCCCC)Oc1ccc2ccccc2c1 [Compound 35, Di-n-butyl 2-napthyl phosphate] | 0.84
CCCCOP(=O)(Cc1cc(C)cc(C)c1)OCCCC [Compound 92, Di-n-butyl 3,5-dimethylbenzylphosphonate] | 0.99
CCCCOP(=O)(Cc1cccc2ccccc12)OCCCC [Compound 89, Di-n-butyl 1-naphthylmethylphosphonate] | 0.96
CCCCOP(=O)(OCCCC)Oc1cc(C)cc(C)c1 [Compound 27, Di-n-butyl 3,5-dimethylphenyl phosphate] | 0.93

From patent US20260015372A1, “Organophosphorous Compounds and Uses Thereof” (priority 2022, published 2026)
